Assay results reported in patent EP0705816B1, “BENZENE DERIVATIVE USEFUL FOR ISCHEMIC DISEASES” (Chugai Seiyaku Kabushiki Kaisha, priority 1993, dated 1995).
Read-outs that look alike come from different tables or passages of the source.

What was measured:
[1] = tested on: rabbit LDL; assay: Inhibitory action on lipid peroxidation in vitro, Method A: oxidation of LDL by soybean lipoxygenase, fluorescence of the LDL fraction; assay type: biochemical; conditions: fluorescence intensity of LDL fraction, SLO 40 µg/ml, 37°C, 24 hours
Procedure: A test compound was added to rabbit LDL prepared according to the method of Havel, et al. (Havel RJ et al., J. Clin. Invest., 34, 1345 (1955)), and then a soybean lipoxygenase type-IS (SLO) was added to a final concentration of 40 µg/ml. Oxydation of LDL was carried out by incubating at 37°C in a CO2 incubator for 24 hours. The oxidized LDL solution was analyzed by gel-permeation chromatography, and the fluorescence intensity of the LDL fraction was measured at an excitation wavelength of 360 nm and an emission wavelength of 430 nm.

[2] = tested on: rabbit LDL; assay: Inhibitory action on lipid peroxidation in vitro, Method B: CuSO4 oxidation of LDL, TBARS by fluorometry; assay type: biochemical; conditions: 1 x 10^-5 M, CuSO4 1 µM, 37°C, 24 hours, 10 µM
Procedure: A test compound was added to rabbit LDL prepared according to the method of Havel, et al. (Havel RJ, et al., J. Clin. Invest., 34, 1345 (1955)), and then CuSO4 was added to a final concentration of 1 µM. Oxidation of LDL was performed by shaking at 37°C for 24 hours. The generated TBARS was measured by the method of Yagi utilizing fluorometry (Yagi, K., Biochem. Med., 15, 212 (1976)).

[3] = tested on: ventricular myocytes; assay: Inhibitory action on calcium overload in vitro, Method A: veratrine-treated myocytes; assay type: cell-based, male Sprague-Dawley rat; design: key: ++: The cells survived almost completely at 10^-7 M.; The cells died almost completely at 10 M^-8 M; conditions: compound 30 minutes, then 100 µg/ml of veratrine; shape of cells observed five minutes later
Procedure: (§1) Incubated ventricular myocytes were prepared from the heart of male Sprague-Dawley rat weighing 300 to 500 g, using an enzyme-perfusion method. […]

[4] = tested on: ventricular myocytes; assay: Inhibitory action on calcium overload in vitro, Method B: veratridine-treated myocytes; assay type: cell-based, male Sprague-Dawley rat; conditions: 50 µg/ml of veratridine, read-out: Concentration at Which Cells Survived Almost Completely
Procedure: as §1
The efficacy was evaluated in the same manner as in Method A, except for using 50 µg/ml of veratridine in place of veratrine (100 µg/ml).

[5] = Rattus norvegicus, Ventricular myocyte

SMILES | Percent (%) of Control ([1]; 5 x 10^-6 M) [%] | Percent (%) of Control ([1]; 5 x 10^-7 M, 0.5 µM) [%] | % of Control [2] [%] | Survival Rate of Cells [3] | also measured
CCN(CCCN1C(=O)CSC1c1cc(C(C)(C)C)c(O)c(C(C)(C)C)c1)CCOc1ccc2c(c1)OCO2 (centres unmarked) [Compound (12)] | 6.4 | 16.8 | 25.9 | ++ | 
CN(CCCN1C(=O)CSC1c1cc(C(C)(C)C)c(O)c(C(C)(C)C)c1)CCOc1ccc2c(c1)OCO2 (single isomer, unassigned; (+)) [Compound (70), (+)-2-(3,5-Di-tert-butyl-4-hydroxyphenyl)-3-[3-[N-methyl-N-[2-(3,4-methylenedioxyphenoxy)ethyl]amino]propyl]-1,3-thiazolidin-4-one] |  | 15.2 | 21.1 |  | Percent (%) of Control ([1]; 5 x 10^-6 M, 5 µM): 5.1%
CN(CCCOc1ccc2c(c1)OCO2)CCCN1C(=O)CSC1c1cc(C(C)(C)C)c(O)c(C(C)(C)C)c1 (centres unmarked) [Compound (17)] | 3.9 | 16.4 | 21.0 |  | minimal effective concentration [4, 5]: 0.32 µM
COc1ccc(CCN(C)CCCN2C(=O)CSC2c2cc(C(C)(C)C)c(O)c(C(C)(C)C)c2)cc1OC (centres unmarked) [Compound (20)] | 0.6 | 8.7 | 21.3 | + | 
CN(CCCN1C(=O)C(CCO)SC1c1cc(C(C)(C)C)c(O)c(C(C)(C)C)c1)CCOc1ccc2c(c1)OCO2 (centres unmarked) [Compound (49), 2-(3,5-Di-tert-butyl-4-hydroxyphenyl)-3-[3-[N-methyl-N-[2-(3,4-methylenedioxyphenoxy)ethyl]amino]propyl]-5-(2-hydroxyethyl)-1,3-thiazolidin-4-one] |  |  | 15.7 |  | 
CC1SC(c2cc(C(C)(C)C)c(O)c(C(C)(C)C)c2)N(CCCN(C)CCOc2ccc3c(c2)OCO3)C1=O (single isomer, unassigned; (+)) [Compound (74), (+)-2,5-Cis-2-(3,5-di-tert-butyl-4-hydroxyphenyl)-3-[3-[N-methyl-N-[2-(3,4-methylenedioxyphenoxy)ethyl]amino]propyl]-5-methyl-1,3-thiazolidin-4-one] |  |  |  |  | minimal effective concentration [4, 5]: 0.32 µM
CN(CCCN1C(=O)C(OCCO)SC1c1cc(C(C)(C)C)c(O)c(C(C)(C)C)c1)CCOc1ccc2c(c1)OCO2 (centres unmarked) [Compound (55)] |  |  | 20.0 |  | 
CN(CCCCCN1C(=O)CSC1c1cc(C(C)(C)C)c(O)c(C(C)(C)C)c1)CCOc1ccc2c(c1)OCO2 (centres unmarked) [Compound (9)] | 5.9 | 13.5 | 26.4 | ++ | 
CN(CCCN1C(=S)CSC1c1cc(C(C)(C)C)c(O)c(C(C)(C)C)c1)CCOc1ccc2c(c1)OCO2 (centres unmarked) [Compound (57), 2-(3,5-Di-tert-butyl-4-hydroxyphenyl)-3-[3-[N-methyl-N-[2-(3,4-methylenedioxyphenoxy)ethyl]amino]propyl]-1,3-thiazolidin-4-thione] | 11.3 | 22.8 | 23.0 |  | 
CN(CCCN1C(=O)CSC1c1cc(C(C)(C)C)c(O)c(C(C)(C)C)c1)CCOc1ccc2c(c1)OCO2 (centres unmarked) [Compound (26), 2-(3,5-Di-tert-butyl-4-hydroxyphenyl)-3-[3-[N-methyl-N-[2-(3,4-methylenedioxyphenoxy)ethyl]amino]propyl]-1,3-thiazolidin-4-one] |  |  |  | ++ | 
CC1SC(c2cc(C(C)(C)C)c(O)c(C(C)(C)C)c2)N(CCCN(C)CCOc2ccc3c(c2)OCO3)C1=O (single isomer, unassigned; (-)) [Compound (75), (-)-2,5-Cis-2-(3,5-di-tert-butyl-4-hydroxyphenyl)-3-[3-[N-methyl-N-[2-(3,4-methylenedioxyphenoxy)ethyl]amino]propyl]-5-methyl-1,3-thiazolidin-4-one] |  |  |  |  | minimal effective concentration [4]: 0.32 µM
C[C@H]1S[C@H](c2cc(C(C)(C)C)c(O)c(C(C)(C)C)c2)N(CCCN(C)CCOc2ccc3c(c2)OCO3)C1=O (relative stereo) [Compound (72), 2,5-Trans-2-(3,5-di-tert-butyl-4-hydroxyphenyl)-3-[3-[N-methyl-[2-(3,4-methylenedioxyphenoxy)ethyl]amino]propyl]-5-methyl-1,3-thiazolidin-4-one] |  |  |  |  | minimal effective concentration [4, 5]: 0.32 µM
CN(CCCN1C(=O)C(CC(=O)N(C)C)SC1c1cc(C(C)(C)C)c(O)c(C(C)(C)C)c1)CCOc1ccc2c(c1)OCO2 (centres unmarked) [Compound (51)] |  |  | 16.6 |  | 
COc1ccc([C@@H]2Sc3ccccc3N(CCN(C)C)C(=O)[C@@H]2OC(C)=O)cc1 [Diltiazem, reference compound] | 110.7 | 109.1 | 96.9 | - | minimal effective concentration ([4]; Rattus norvegicus, Ventricular myocyte, symbol defined by footnote): > 1 µM
CC1SC(c2cc(C(C)(C)C)c(O)c(C(C)(C)C)c2)N(CCCN(C)CCOc2ccc3c(c2)OCO3)C1=O (centres unmarked) [Compound (41), 2-(3,5-Di-tert-butyl-4-hydroxyphenyl)-3-[3-[N-methyl-N-[2-(3,4-methylenedioxyphenoxy)ethyl]amino]propyl]-5-methyl-1,3-thiazolidin-4-one] | 6.2 | 18.3 | 26.3 |  | 
CC(C)(C)c1cc(C2SCC(=O)N2CCCN2CCC(Oc3ccc4c(c3)OCO4)CC2)cc(C(C)(C)C)c1O (centres unmarked) [Compound (34)] |  |  | 20.5 |  | minimal effective concentration [4, 5]: 0.32 µM
CN(CCCCN1C(=O)CSC1c1cc(C(C)(C)C)c(O)c(C(C)(C)C)c1)CCOc1ccc2c(c1)OCO2 (centres unmarked) [Compound (8)] |  |  |  | ++ | 
CN(CCCN1C(=O)CSC1c1cc(C(C)(C)C)c(O)c(C(C)(C)C)c1)CCOc1ccc2c(c1)OCO2 (single isomer, unassigned; (-)) [Compound (71), (-)-2-(3,5-Di-tert-butyl-4-hydroxyphenyl)-3-[3-[N-methyl-N-[2-(3,4-methylenedioxyphenoxy)ethyl]amino]propyl]-1,3-thiazolidin-4-one] |  | 12.7 | 23.8 |  | Percent (%) of Control ([1]; 5 x 10^-6 M, 5 µM): 2.8%
CCOC(=O)CC1SC(c2cc(C(C)(C)C)c(O)c(C(C)(C)C)c2)N(CCCN(C)CCOc2ccc3c(c2)OCO3)C1=O (centres unmarked) [Compound (46), 2-(3,5-Di-tert-butyl-4-hydroxyphenyl)-3-[3-[N-methyl-N-[2-(3,4-methylenedioxyphenoxy)ethyl]amino]propyl]-5-ethoxycarbonylmethyl-1,3-thiazolidin-4-one] |  |  | 20.4 |  | 
